Data on 21 compounds can be found in patent US5593970A, “Heterocyclic anthracycline analogs” (priority 1994, dated 1997).

pIC50: −log10 of the molar value. “And” between values parts separate entries of the source, which are not always exact repeats. Identical values can stand only once. Counter-ions that a name gives are not always drawn. Like-named read-outs stand apart in the source and are kept apart here.

What all share (assay): Microculture tetrazolium assay
What all share (type): cell-based

Assay [1] concerns SKOV3.
In assay [2] the test system is SKVLB. The following applies: for VLB/OV3: IC50 ratio SKVLB/SKOV3; for pIC50: SKVLB.
In assay [3] the test system is LOX.
Assay [4] has as its system HT29.
Where [5] appears, read: Homo sapiens, SK-OV-3, SKOV3, read-out: IC50.
[6] abbreviates: Homo sapiens, HT-29, HT29, read-out: IC50.
[7] abbreviates: SKOV3, hydrochloride, read-out: IC50.
Where [8] appears, read: HT29, hydrochloride, read-out: IC50.

For the compound `C[C@@H]1O[C@@H](O[C@@H]2O[C@@H](C(C)(F)F)CC3=C2C(=O)c2cc4ccccc4c(O)c2C3=O)C[C@H](NC(=O)C(F)(F)F)[C@@H]1O` (mixture of isomers) [BCH-1677, (1'S,1R,3S) and (1'S,1S,3R)-5,12-dioxo-3-(1,1-difluoroethyl)-6-hydroxy-1-(2',3',6'-trideoxy-3'-trifluoroacetamido-L-lyxohexopyranose)-3,4,5,12-tetrahydroanthraceno-[2,3-c]-pyran], the pIC50 was 5.33 in assay [1] (setting [5]), 5.11 in assay [2] (read-out: IC50), 5.61 in assay [3] (read-out: IC50) and 5.26 in assay [4] (setting [6]). Further, the VLB/OV3 in assay [2] was 1.65.

Regarding `CC(=O)C1CC2=C(C(=O)c3cc4ccccc4c(O)c3C2=O)C(O[C@H]2CC[C@H](NC(=O)C(F)(F)F)[C@H](C)O2)O1` (mixture of isomers) [BCH-1680, (1'S,1S,3R) and (1'S, 1R, 3S)-methyl-{6-hydroxy-1(2',3',4',6'-tetradeoxy-4'-trifluoroacetamido-L-lyxohexopyranose)-5,12-dioxo-3,4,5,12-tetrahydroanthraceno-[2,3-c]pyran-3-yl}ketone], the pIC50 in assay [1] (setting [5]) was 5.55; in assay [2] (read-out: IC50), 5.42; in assay [3] (read-out: IC50), 5.65; in assay [4] (setting [6]), 5.65. In assay [2], the VLB/OV3 is on record as 1.36.

`CC[C@H]1CC2=C(C(=O)c3cc4ccccc4c(O)c3C2=O)[C@H](O[C@H]2C[C@H](NC(=O)C(F)(F)F)[C@H](O)[C@H](C)O2)O1` [BCH-1187, (1'S,1S,3S)-5,12-dioxo-3-ethyl-6-hydroxy-1-(2',3',6'-trideoxy-3'-trifluoroacetamido-4'-hydroxy-L-lyxohexopyranose)-3,4,5,12-tetrahydroanthraceno[2,3-c]pyran]: the pIC50 in assay [1] (setting [5]) was 5.92; in assay [1] (SKOV3, read-out: IC50) it was 5.73; in assay [2] (read-out: IC50) it was 5.41; in assay [4] (HT29, read-out: IC50) it was 5.70; in assay [4] (setting [6]), 5.85. For the same compound, the VLB/OV3 in assay [2] was 3.22 and 2.10.

As to `COC(=O)[C@H](C)O[C@@H]1OC(C(=O)OC)(C(=O)OC)CC2=C1C(=O)c1cc3ccccc3c(O)c1C2=O` [BCH-1668, (1R,1'S)-3,3-Bis-carbomethoxy-1-(1'-carbomethoxyethoxy)-5,12-dioxo-6-hydroxy-3,4,5,12-tetrahydroanthraceno[2,3-C]pyran], the pIC50 in assay [1] (setting [5]) is 5.21; in assay [2] (read-out: IC50), 5.21; in assay [3] (read-out: IC50) it was 5.28; in assay [4] (setting [6]), 5.24.

Take `CC(=O)C1CC2=C(C(=O)c3cc4ccccc4c(O)c3C2=O)C(OC[C@H](O)CO)O1` (some centres unmarked) [BCH-1669]: the negative logarithm of the IC50 (pIC50) in assay [1] (setting [5]) was 5.92; in assay [2] (read-out: IC50), 5.98; in assay [3] (read-out: IC50) it was 6.20; in assay [4] (setting [6]), 6.23. Moreover, the VLB/OV3 in assay [2] was 0.87.

As for `CC(=O)C1CC2=C(C(=O)c3cc4ccccc4c(O)c3C2=O)C(OC[C@@H](O)CO)S1` (some centres unmarked) [BCH-1670], the pIC50 in assay [1] (setting [5]) was 6.26; in assay [2] (read-out: IC50), 6.17; in assay [3] (read-out: IC50), 6.17; in assay [4] (setting [6]), 6.47. Besides, in assay [2], the VLB/OV3 is listed as 1.24.

`CC(=O)[C@@H]1Cc2c(O)c3c(c(O)c2[C@@H](O[C@@H]2O[C@@H](C)[C@@H](O)[C@@H](O)C2I)O1)C(=O)c1ccccc1C3=O` (some centres unmarked) [BCH-1672]: the pIC50 in assay [1] (setting [5]) was 6.46; in assay [2] (read-out: IC50), 6.00; in assay [3] (read-out: IC50), 6.63; in assay [4] (setting [6]), 5.78. Besides, the VLB/OV3 in assay [2] is 2.89.

For the compound `CC(=O)[C@H]1Cc2c(O)c3c(c(O)c2[C@H](O[C@@H]2O[C@@H](C)[C@@H](O)[C@@H](O)C2I)O1)C(=O)c1ccccc1C3=O` (some centres unmarked) [BCH-1675], the pIC50 is 5.93 in assay [3] (read-out: IC50) and 5.28 in assay [4] (setting [6]).

Turning to `C[C@@H]1O[C@@H](O[C@H]2O[C@H](C(C)(F)F)CC3=C2C(=O)c2cc4ccccc4c(O)c2C3=O)C[C@H](NC(=O)C(F)(F)F)[C@@H]1O` [BCH-1676, (1'S,1R,3S)-5,12-dioxo-3-(1,1-difluoroethyl)-6-hydroxy-1-(2',3',6'-trideoxy-3'-trifluoroacetamido-L-lyxohexopyranose)-3,4,5,12-tetrahydroanthraceno-[2,3-c]-pyran], the pIC50 was 5.61 in assay [1] (setting [5]), 5.40 in assay [2] (read-out: IC50), 5.64 in assay [3] (read-out: IC50) and 5.52 in assay [4] (setting [6]). The VLB/OV3 in assay [2] is given as 1.63.

With `COP(=O)(CC(=O)[C@@H]1CC2=C(C(=O)c3cc4ccccc4c(O)c3C2=O)[C@@H](O[C@H]2C[C@H](NC(=O)C(F)(F)F)[C@H](O)[C@H](C)O2)O1)OC` [BCH-1678], the pIC50 is 5.27 in assay [1] (Homo sapiens, SK-OV-3, SKOV3); 4.87 in assay [2]; 5.42 in assay [3]; 5.25 in assay [4] (Homo sapiens, HT-29, HT29). Further, the VLB/OV3 in assay [2] is recorded as 2.54.

Consider `COP(=O)(CC(=O)[C@H]1CC2=C(C(=O)c3cc4ccccc4c(O)c3C2=O)[C@H](O[C@H]2C[C@H](NC(=O)C(F)(F)F)[C@H](O)[C@H](C)O2)O1)OC` [BCH-1679], for which the pIC50 was 5.92 in assay [1] (Homo sapiens, SK-OV-3, SKOV3); 5.44 in assay [2]; 5.96 in assay [3]; 5.96 in assay [4] (Homo sapiens, HT-29, HT29).

On to `CC(=O)[C@H]1CC2=C(C(=O)c3cc4ccccc4c(O)c3C2=O)[C@H](O[C@@H]2O[C@@H](C)[C@@H](O)[C@@H](O)C2I)O1` (some centres unmarked) [BCH-1681], for which the pIC50 in assay [1] (setting [5]) is 6.04; in assay [2] (read-out: IC50), 6.17; in assay [3] (read-out: IC50), 6.34; in assay [4] (setting [6]) it was 6.91. In addition, the VLB/OV3 in assay [2] amounted to 0.73.

As to `CC(NC(=O)C(F)(F)F)C1Cc2c(O)c3c(c(O)c2C(O[C@H]2C[C@H](O)[C@H](O)[C@H](C)O2)O1)C(=O)c1ccccc1C3=O` (some centres unmarked) [BCH-1682], the pIC50 in assay [1] (setting [5]) was 4.61; in assay [2] (read-out: IC50), < 4.00; in assay [3] (read-out: IC50) it was 4.79; in assay [4] (setting [6]) it was 4.59.

Consider `CC(N)C1Cc2c(O)c3c(c(O)c2C(O[C@H]2C[C@H](O)[C@H](O)[C@H](C)O2)O1)C(=O)c1ccccc1C3=O` (stereo partly drawn) [BCH-1683, (1'S ,1S,3R)-3(aminoethyl)-5,12-dihydroxyl-1(2,3,6-trideoxy-3,4-dihydroxy-L-lyxohexopyranose)-6,11-dioxo-3,4,6,11-tetrahydro-1H-anthra[2,3-c]pyran hydrochloride], for which the pIC50 in assay [1] (setting [5]) was 5.51; in assay [2] (read-out: IC50), 4.94; in assay [3] (read-out: IC50), 5.64; in assay [4] (setting [6]) it was 5.87. Besides, in assay [2], the VLB/OV3 was 3.71.

On to `C[C@@H]1O[C@@H](O[C@@H]2O[C@@H](c3ccccc3)CC3=C2C(=O)c2cc4ccccc4c(O)c2C3=O)C[C@H](N)[C@@H]1O` [BCH-2013], for which the negative logarithm of the IC50 (pIC50) in assay [2] (read-out: IC50) was 5.33; in assay [3] (read-out: IC50) it was 6.26.

With `C=C(C)[C@H]1Cc2c(O)c3c(c(O)c2[C@H](O[C@H]2C[C@H](N)[C@H](O)[C@H](C)O2)O1)C(=O)c1ccccc1C3=O` [BCH-2188, (1'S,1S,3R)-5,12-dihydroxy-6,11-dioxo-3-isopropenyl-1-(2',3',6'-trideoxy-3'-amino-L-lyxohexopyranose)-3,4,5,12-tetrahydroanthraceno-[2,3-c]-pyran hydrochloride], the pIC50 was 6.43 in assay [1] (setting [5]); 6.19 in assay [1] (setting [7]); 6.53 in assay [2] (hydrochloride, read-out: IC50); 6.70 in assay [2] (read-out: IC50); 6.51 in assay [4] (setting [8]); 6.68 in assay [4] (setting [6]). The VLB/OV3 in assay [2] (hydrochloride) is 0.53 and 0.46.

With `C=C(C)[C@@H]1Cc2c(O)c3c(c(O)c2[C@@H](O[C@H]2C[C@H](N)[C@H](O)[C@H](C)O2)O1)C(=O)c1ccccc1C3=O` [BCH-2189, (1'S,1R,3S)-5,12-dihydroxy-6,11-dioxo-3-isopropenyl-1-(2',3',6'-trideoxy-3'-amino-L-lyxohexopyranose)-3,4,5,12-tetrahydroanthraceno-[2,3-c]-pyran hydrochloride], the pIC50 in assay [1] (setting [5]) is 6.57; in assay [1] (setting [7]) it was 6.47; in assay [4] (setting [8]) it was 6.84; in assay [4] (setting [6]), 6.83. Also, in assay [2] (hydrochloride), the VLB/OV3 was 0.39 and 0.73.

Turning to `CC(C)[C@H]1Cc2c(O)c3c(c(O)c2[C@H](O[C@H]2C[C@H](N4CCOCC4)[C@H](O)[C@H](C)O2)O1)C(=O)c1ccccc1C3=O` [BCH-2190, (1'S,1S,3R)-5,12-dihydroxy-6,11-dioxo-3-isopropyl-1-(2',3',6-trideoxy-3'-(4-morpholinyl)-L-lyxohexopyranose)-3,4,5,12-tetrahydroanthraceno-[2,3-c]-pyran], the pIC50 in assay [1] (setting [5]) is 5.78; in assay [2] (read-out: IC50), 5.50; in assay [4] (setting [6]), 5.43. For the same compound, in assay [2], the VLB/OV3 is given as 1.93.

Turning to `CC(C)[C@H]1Cc2c(O)c3c(c(O)c2[C@H](O[C@H]2C[C@H](N4CCOCC4)[C@H](O)[C@H](C)O2)O1)C(=O)c1ccccc1C3=O` [BCH-2192, (1'S,1S,3R)-5,12-dihydroxy-6,11-dioxo-3-isopropyl-1-(2',3',6'-trideoxy-3'(4-morpholinyl)-L-lyxohexopyranose)-3,4,5,12-tetrahydroanthraceno-[2,3-c]-pyran hydrochloride], the pIC50 is 5.71 in assay [1] (setting [7]); 5.64 in assay [2] (hydrochloride, read-out: IC50); 5.33 in assay [4] (setting [8]). For the same compound, the VLB/OV3 in assay [2] (hydrochloride) is given as 1.18.

In the case of `CC(C)[C@H]1Cc2c(O)c3c(c(O)c2[C@H](O[C@H]2C[C@H](N4CCOCC4C#N)[C@H](O)[C@H](C)O2)O1)C(=O)c1ccccc1C3=O` (stereo partly drawn) [BCH-2195, (1'S,1S,3R)-5,12-dihydroxy-6,11-dioxo-3-isopropyl-1-(2',3',6'-trideoxy-3'(3-cyano-4-morpholinyl)-L-lyxohexopyranose)-3,4,5,12-tetrahydroanthraceno-[2,3-c]-pyran], the pIC50 in assay [1] (Homo sapiens, SK-OV-3, SKOV3) is 5.34; in assay [2], 5.00; in assay [4] (Homo sapiens, HT-29, HT29), 5.47. The VLB/OV3 in assay [2] is listed as 2.22.

For the compound `C[C@@H]1O[C@@H](O[C@@H]2O[C@@H](C(=O)OC(C)(C)C)CC3=C2C(=O)c2cc4ccccc4c(O)c2C3=O)C[C@H](NC(=O)C(F)(F)F)[C@@H]1O` [BCH-2850], the results for the pIC50 in assay [1] (setting [5]), in assay [2] (read-out: IC50) and in assay [4] (setting [6]) were 5.46, 5.28 and 5.29, respectively. Moreover, the VLB/OV3 in assay [2] is 1.49.

As a reminder, the pIC50 is the IC50 on a negative log10 scale, so that one unit is a factor of ten.
